# Test results as given in PubChem BioAssay AID248 (DTP/NCI, 2004).
# Several values for one entry are separate records, joined by “and”; a condition that tells them apart may be missing. Equal values may be shown once. Toxic doses and inconclusive results are not listed.
# System: L1210 leukemia ip in BDF1 mice, survival T/C
# Test: NCI In Vivo Anticancer Drug Screen. Data for tumor model L1210 Leukemia (intraperitoneal) in B6D2F1 (BDF1) mice
# Conditions: endpoint: mean survival time, higher = longer survival
# How it was run: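 In this screen, tumor-bearing mice given compound are compared to those given vehicle, and their survival values are reported as a treated-to-control quotient.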
# [1] = dose: 50.0 mg/kg/injection, schedule: Q01DX001 (ip), vehicle: carboxymethylcellulose (CMC)
# [2] = dose: 100.0 mg/kg/injection, schedule: Q01DX001 (ip), vehicle: carboxymethylcellulose (CMC)
# [3] = dose: 200.0 mg/kg/injection, schedule: Q01DX001 (ip), vehicle: carboxymethylcellulose (CMC)
# [4] = dose: 100.0 mg/kg/injection, schedule: Q04DX003 (ip), vehicle: saline
# [5] = dose: 200.0 mg/kg/injection, schedule: Q04DX003 (ip), vehicle: saline
# [6] = dose: 400.0 mg/kg/injection, schedule: Q04DX003 (ip), vehicle: saline
# [7] = dose: 100.0 mg/kg/injection, schedule: Q04DX002 (ip), vehicle: saline with Tween-80
# [8] = dose: 200.0 mg/kg/injection, schedule: Q04DX002 (ip), vehicle: saline with Tween-80
# [9] = dose: 100.0 mg/kg/injection, schedule: Q01DX009 (ip), vehicle: Klucel (hydroxypropylcellulose) (HPC)
# [10] = dose: 100.0 mg/kg/injection, schedule: Q04DX003 (ip), vehicle: other
# [11] = dose: 200.0 mg/kg/injection, schedule: Q01DX009 (ip), vehicle: Klucel (hydroxypropylcellulose) (HPC)
# [12] = dose: 200.0 mg/kg/injection, schedule: Q04DX003 (ip), vehicle: other
# [13] = dose: 400.0 mg/kg/injection, schedule: Q01DX001 (ip), vehicle: carboxymethylcellulose (CMC)
# [14] = dose: 400.0 mg/kg/injection, schedule: Q01DX009 (ip), vehicle: Klucel (hydroxypropylcellulose) (HPC)
# [15] = dose: 400.0 mg/kg/injection, schedule: Q04DX003 (ip), vehicle: other
# [16] = dose: 100.0 mg/kg/injection, schedule: Q04DX002 (ip), vehicle: saline
# [17] = dose: 100.0 mg/kg/injection, schedule: Q04DX002 (ip), vehicle: Klucel (hydroxypropylcellulose) (HPC)
# [18] = dose: 100.0 mg/kg/injection, schedule: Q01DX009 (ip), vehicle: saline
# [19] = dose: 100.0 mg/kg/injection, schedule: Q04DX003 (ip), vehicle: Klucel (hydroxypropylcellulose) (HPC)
# [20] = dose: 200.0 mg/kg/injection, schedule: Q01DX009 (ip), vehicle: saline
# [21] = dose: 200.0 mg/kg/injection, schedule: Q04DX003 (ip), vehicle: Klucel (hydroxypropylcellulose) (HPC)
# [22] = dose: 400.0 mg/kg/injection, schedule: Q04DX003 (ip), vehicle: Klucel (hydroxypropylcellulose) (HPC)
structure (smiles),measurement,setting,value
COc1cc(C=Nc2ccc(-c3csc(COc4ccccc4)n3)cc2)ccc1N(CCCl)CCCl,T/C,"dose: 3.7 mg/kg/injection, schedule: Q01DX015 (ip), vehicle: carboxymethylcellulose (CMC)",116 % of control
same,T/C,"dose: 6.2 mg/kg/injection, schedule: Q01DX015 (ip), vehicle: carboxymethylcellulose (CMC)",117 % of control
same,T/C,"dose: 9.3 mg/kg/injection, schedule: Q01DX015 (ip), vehicle: carboxymethylcellulose (CMC)",119 % of control
same,T/C,"dose: 10.0 mg/kg/injection, schedule: Q01DX001 (ip), vehicle: carboxymethylcellulose (CMC)",121 % of control
same,T/C,"dose: 15.0 mg/kg/injection, schedule: Q01DX015 (ip), vehicle: carboxymethylcellulose (CMC)",124 % of control
same,T/C,"dose: 20.0 mg/kg/injection, schedule: Q01DX001 (ip), vehicle: carboxymethylcellulose (CMC)",123 % of control
same,T/C,"dose: 40.0 mg/kg/injection, schedule: Q01DX001 (ip), vehicle: carboxymethylcellulose (CMC)",156 % of control
same,T/C,[1],107 % of control
same,T/C,"dose: 50.0 mg/kg/injection, schedule: Q01DX015 (ip), vehicle: carboxymethylcellulose (CMC)",96 % of control and 104 % of control and 92 % of control
same,T/C,"dose: 66.6 mg/kg/injection, schedule: Q01DX001 (ip), vehicle: carboxymethylcellulose (CMC)",164 % of control
same,T/C,[2],156 % of control
same,T/C,[3],104 % of control
CC(C)N(C(=O)C1C2CCC(CC2)C1C(=O)N(C(C)C)C(C)C)C(C)C (stereo unspecified),T/C,[4],100 % of control
same,T/C,[5],100 % of control
same,T/C,[6],100 % of control
CC(=O)CCP(C)(=O)O,T/C,[7],95 % of control
same,T/C,[8],92 % of control
same,T/C,"dose: 400.0 mg/kg/injection, schedule: Q04DX002 (ip), vehicle: saline with Tween-80",104 % of control
CSc1ncc2ncn(C3OC(CO)C(O)C3O)c2n1 (stereo unspecified),T/C,[2],108 % of control
same,T/C,[9],91 % of control
same,T/C,[10],110 % of control
same,T/C,[3],102 % of control
same,T/C,[11],98 % of control
same,T/C,[12],95 % of control
same,T/C,[13],98 % of control
same,T/C,[14],89 % of control
same,T/C,[15],100 % of control
OCC(O)C(O)C(O)C(c1ccc(Cl)cc1)c1ccc(Cl)cc1 (stereo unspecified),T/C,"dose: 50.0 mg/kg/injection, schedule: Q01DX001 (ip), vehicle: saline",104 % of control and 103 % of control and 101 % of control
same,T/C,"dose: 100.0 mg/kg/injection, schedule: Q01DX001 (ip), vehicle: saline",102 % of control and 103 % of control and 97 % of control
same,T/C,"dose: 200.0 mg/kg/injection, schedule: Q01DX001 (ip), vehicle: saline",98 % of control and 101 % of control and 97 % of control
same,T/C,"dose: 400.0 mg/kg/injection, schedule: Q01DX001 (ip), vehicle: saline",96 % of control and 91 % of control and 101 % of control
CN(C)CC1(c2ccccc2)CC[N+](C)(C)C1 (stereo unspecified),T/C,"dose: 75.0 mg/kg/injection, schedule: Q01DX001 (ip), vehicle: saline",89 % of control
same,T/C,"dose: 150.0 mg/kg/injection, schedule: Q01DX001 (ip), vehicle: saline",93 % of control
COc1ccc(Cc2ccc(OC)c(OC)c2)cc1OC,T/C,"dose: 200.0 mg/kg/injection, schedule: Q04DX003 (ip), vehicle: acetone",124 % of control
same,T/C,"dose: 400.0 mg/kg/injection, schedule: Q04DX003 (ip), vehicle: acetone",100 % of control
Cc1nc2c(-c3ccccc3)cc(Cl)cc2s1,T/C,[4],100 % of control
same,T/C,[5],101 % of control
same,T/C,[6],95 % of control
O=C(Nc1ccccc1)OC1CCC2CC21 (stereo unspecified),T/C,"dose: 50.0 mg/kg/injection, schedule: Q01DX009 (ip), vehicle: saline with Tween-80",91 % of control
same,T/C,"dose: 100.0 mg/kg/injection, schedule: Q01DX009 (ip), vehicle: saline with Tween-80",87 % of control
CC1=C(C(=O)O)C(C)CC(=O)N1c1ccccc1 (stereo unspecified),T/C,[1],102 % of control
same,T/C,[2],96 % of control
same,T/C,[3],93 % of control
same,T/C,[13],96 % of control
COc1cc2c(cc1OC)-c1cc3cc(OC)c(OC)cc3c(CCC(=O)O)[n+]1CC2 (tested in a mixture with another compound),T/C,[16],117 % of control
same,T/C,"dose: 200.0 mg/kg/injection, schedule: Q04DX002 (ip), vehicle: saline",103 % of control
same,T/C,"dose: 400.0 mg/kg/injection, schedule: Q04DX002 (ip), vehicle: saline",109 % of control
CNCCCNCC1C(c2ccccc2)C1c1ccccc1 (stereo unspecified),T/C,"dose: 25.0 mg/kg/injection, schedule: Q04DX002 (ip), vehicle: saline",100 % of control and 90 % of control
same,T/C,"dose: 50.0 mg/kg/injection, schedule: Q04DX002 (ip), vehicle: saline",103 % of control
same,T/C,[16],86 % of control and 97 % of control
Cc1cc(C(C)(C)C)cc(O)c1O,T/C,"dose: 100.0 mg/kg/injection, schedule: Q01DX001 (ip), vehicle: other",113 % of control
same,T/C,"dose: 200.0 mg/kg/injection, schedule: Q01DX001 (ip), vehicle: other",93 % of control
same,T/C,"dose: 400.0 mg/kg/injection, schedule: Q01DX001 (ip), vehicle: other",93 % of control
O=C(N=Nc1c(O)[nH]c2ccccc12)c1ccccc1[N+](=O)[O-],T/C,[2],87 % of control
same,T/C,[3],90 % of control
same,T/C,[13],96 % of control
COC(=O)[CH](C[N+](=O)[O-])[Hg][Cl] (stereo unspecified),T/C,"dose: 3.12 mg/kg/injection, schedule: Q01DX009 (ip), vehicle: saline",94 % of control
same,T/C,"dose: 6.25 mg/kg/injection, schedule: Q01DX009 (ip), vehicle: saline",94 % of control
CC(N)(COC(=O)c1ccccc1)C(=O)O (stereo unspecified),T/C,[4],107 % of control
same,T/C,[5],96 % of control
same,T/C,[6],98 % of control
CN(C)C(=S)SSSC(=S)N(C)C,T/C,"dose: 25.0 mg/kg/injection, schedule: Q04DX002 (ip), vehicle: Klucel (hydroxypropylcellulose) (HPC)",101 % of control
same,T/C,"dose: 50.0 mg/kg/injection, schedule: Q04DX002 (ip), vehicle: Klucel (hydroxypropylcellulose) (HPC)",94 % of control
same,T/C,[17],93 % of control and 105 % of control
ClC(Cl)(Cl)c1cccc(-c2nc(NCCCN3CCCC3)nc(C(Cl)(Cl)Cl)n2)c1,T/C,[9],102 % of control
same,T/C,[11],100 % of control
same,T/C,[14],86 % of control
O=Cc1sc2cc[nH]c2c1O,T/C,"dose: 100.0 mg/kg/injection, schedule: Q04DX003 (ip), vehicle: saline with Tween-80",100 % of control
same,T/C,"dose: 200.0 mg/kg/injection, schedule: Q04DX003 (ip), vehicle: saline with Tween-80",97 % of control
same,T/C,"dose: 400.0 mg/kg/injection, schedule: Q04DX003 (ip), vehicle: saline with Tween-80",94 % of control
O=C(O)c1ccc(O)c([N+](=O)[O-])c1,T/C,[18],105 % of control
same,T/C,[19],101 % of control
same,T/C,[20],96 % of control
same,T/C,[21],100 % of control
same,T/C,"dose: 400.0 mg/kg/injection, schedule: Q01DX009 (ip), vehicle: saline",87 % of control
same,T/C,[22],102 % of control
CCCCN(C(=O)OCC)P(=O)(OCC)OCC,T/C,[18],95 % of control
same,T/C,[20],109 % of control
CCOC(=O)/C(C)=C\C1C(C)=CC(=O)CC1(C)C (stereo unspecified),T/C,[19],102 % of control
same,T/C,[21],95 % of control
same,T/C,[22],100 % of control
CCOC(=O)/C=C1\CCCc2cc(C)c(C)cc21,T/C,[10],105 % of control
same,T/C,[12],94 % of control
same,T/C,[15],104 % of control
O=C(COc1cc(Cl)c(Cl)cc1Cl)OC(=O)COc1cc(Cl)c(Cl)cc1Cl,T/C,[17],107 % of control
same,T/C,"dose: 200.0 mg/kg/injection, schedule: Q04DX002 (ip), vehicle: Klucel (hydroxypropylcellulose) (HPC)",96 % of control
Cc1cccc(Cl)c1OCC(=O)Nc1ccccc1,T/C,[7],101 % of control
same,T/C,[8],104 % of control
NC(=O)NC(=O)C1C2CC3OC(=O)C1C3C2 (stereo unspecified),T/C,[4],93 % of control
same,T/C,[5],93 % of control
same,T/C,[6],98 % of control
